Laboratory results reported in patent US20040248869A1, “Method for finding novel active ingredients having androgen-type properties” (priority 2001, published 2004).

Legend:
male adult fibroblasts = male adult fibroblasts (cultures 2-6); increase based on the blank value; average of the two measuring conditions
Description: The process may be carried out, for example, as follows: cell suspensions of human fibroblasts (embryonal cells of adult male origin) are mixed with 1 to 2 mg/ml of a collagen suspension. […] After incubation for 7 days at 27° C./5% by volume carbon dioxide in a steam-saturated atmosphere, biopsies are taken and histological sections prepared. The quantity of macromolecules formed can be determined by two different methods:
1. a general determination by coloring the glucosaminoglucans (GAGs) with PAS Alcian Blue (standard coloration) and
2. a specific immunohistochemical characterization of certain elements of the matrix by treatment with antibodies, more especially anti-chondroitin sulfate, anti-keratan sulfate, anti-heparan sulfate, anti-dermatan sulfate, anti-elastin and anti-collagen (type III).
The fibroblasts are examined with a photon microscope in regard to the coloration (PAS Alcian) and with a confocal laser microscope in regard to the immunohistology. In order to determine the quantity of dermal macromolecules formed, micrographs are taken and the zones around the fibroblasts (“perifibroblastic zones”) are analyzed. Counting is done by image analysis, i.e. by determining the perifibroblastic zones and the gray level. Both parameters are directly proportional to the synthesis of dermal macromolecules. The results are evaluated in relation to the corresponding results without addition of the active components.
The numbers represent the increase in %-rel., based on the blank value, i.e. the absence of the male sex hormones, and expressed as the average of the two measuring conditions.

genital fibroblasts = conditions: Loire et al., Sultan et al.; cited from earlier work
embryonal fibroblasts = test: Synthesis of dermal macromolecules in fibroblast cultures in collagen gel (embryonal fibroblasts); format: cell-based, human; conditions: increase based on the blank value (absence of hormone), average of the two measuring conditions
human skin cells = conditions: differentiation of human skin cells; cited from earlier work
epidermis = conditions: topical application, axillae of relatively old males; Kligman et al.; cited from earlier work

C[C@]12CCC(=O)C[C@@H]1CC[C@@H]1[C@@H]2CC[C@]2(C)[C@@H](O)CC[C@@H]12 [DHT, dihydrotestosterone]
Increase in the synthesis of macromolecules: Elastin (male adult fibroblasts): +552 %-rel.
Increase in the synthesis of macromolecules: Heparan sulfate (male adult fibroblasts): +486 %-rel.
DNA or protein distribution in the target cell (genital fibroblasts): does not affect

C[C@]12CC[C@H]3[C@@H](CCC4=CC(=O)CC[C@@]43C)[C@@H]1CC[C@@H]2O [T (soluble), testosterone]
Increase in the synthesis of macromolecules: Chondroitin sulfate (embryonal fibroblasts): +23 %-rel.
Increase in the synthesis of macromolecules: Collagen (embryonal fibroblasts): +17 %-rel.
Increase in the synthesis of macromolecules: Elastin (embryonal fibroblasts): +11 %-rel.

C[C@]12CC[C@H]3[C@@H](CCC4=CC(=O)CC[C@@]43C)[C@@H]1CC[C@@H]2O [T, testosterone]
Increase in the synthesis of macromolecules: Chondroitin sulfate (male adult fibroblasts): +537 %-rel.
Increase in the synthesis of macromolecules: Elastin (male adult fibroblasts): +2753 %-rel.
Increase in the synthesis of macromolecules: Keratan sulfate (male adult fibroblasts): +83 %-rel.
reduction of granular cells, keratohyalin granules and keratinosomes (human skin cells): does counteract the reduction

CCC(=O)O[C@H]1CC[C@H]2[C@@H]3CCC4=CC(=O)CC[C@]4(C)[C@H]3CC[C@]12C [testosterone propionate]
strength of the epidermis (epidermis): increases the strength of the epidermis
